# Assay results taken from US7345180B2, “Compound inhibiting dipeptidyl peptidase IV” (Sanwa Kagaku Kenkyusho Co., Ltd., priority 2003, dated 2008).
# Molecular target: T1, DPP-IV (Homo sapiens, UniProt P27487)
# T1 construct: from tissue; host or cells: human plasma (diluted 30-fold)
# Assay: DPP-IV inhibition, Gly-Pro-MCA substrate, human plasma as enzyme source (Pharmacological Test Example 1)
# Assay type: biochemical
# Details: 30 minutes at room temperature
# Protocol: In screening of DPP-IV inhibitor, the following method using glycyl-proline-4-methylcumalyl-7-amide (Gly-Pro-MCA) as substrate was used.
# There after, human plasma (20 μl) diluted30-fold with the measurement buffer was added to each well, stirred and reacted at room temperature for 30 minutes in the dark.
# Inhibitory activity on DPP-IV=100×(1−(Fs−Fb)/F100−Fb) F100:fluorescence intensity obtained by reaction with plasma. Fb:fluorescence intensity of a blank where the reaction was carried out with the reaction terminating solution added. Fs:fluorescence intensity obtained by adding the test substance.
# T1 sequence (P27487 39-766 limits assumed): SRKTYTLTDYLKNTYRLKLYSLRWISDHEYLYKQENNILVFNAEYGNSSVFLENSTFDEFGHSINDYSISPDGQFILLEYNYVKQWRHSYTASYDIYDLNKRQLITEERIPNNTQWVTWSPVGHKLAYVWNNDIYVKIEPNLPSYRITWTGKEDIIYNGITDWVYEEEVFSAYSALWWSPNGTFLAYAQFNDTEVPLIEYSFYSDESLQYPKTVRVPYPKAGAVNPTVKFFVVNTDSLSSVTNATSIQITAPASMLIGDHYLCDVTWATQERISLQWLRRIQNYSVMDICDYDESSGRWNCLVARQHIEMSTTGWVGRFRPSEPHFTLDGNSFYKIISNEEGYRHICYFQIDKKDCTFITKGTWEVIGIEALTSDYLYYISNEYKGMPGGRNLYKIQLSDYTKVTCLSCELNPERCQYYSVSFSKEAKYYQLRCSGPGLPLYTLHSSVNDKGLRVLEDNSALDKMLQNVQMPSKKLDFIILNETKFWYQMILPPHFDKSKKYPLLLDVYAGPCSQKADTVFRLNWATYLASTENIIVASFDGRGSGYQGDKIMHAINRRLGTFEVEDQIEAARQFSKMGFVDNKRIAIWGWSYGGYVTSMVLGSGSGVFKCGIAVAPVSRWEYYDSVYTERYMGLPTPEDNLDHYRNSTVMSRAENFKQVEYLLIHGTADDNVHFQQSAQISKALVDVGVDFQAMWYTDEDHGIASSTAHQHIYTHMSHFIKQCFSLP
row,Compound,IC50 [nM]
1,COc1cc(OC)c2cc(C(=O)NCC(C)(C)NCC(=O)N3CCC[C@H]3C#N)n(C)c2c1 [Example 25],48
2,CC(C)(CC(=O)N1Cc2cccc(F)c2C1)NCC(=O)N1CCC[C@H]1C#N [Example 67],7
3,N#C[C@@H]1CCCN1C(=O)CNCCC(=O)N1Cc2ccccc2C1 [Example 89],25
4,Cc1cccc2c1CN(C(=O)CC(C)(C)NCC(=O)N1CCC[C@H]1C#N)C2 [Example 68],16
5,N#C[C@@H]1CCCN1C(=O)CNCCCCNC(=O)c1ccc2ncsc2c1 [Example 105],31
6,Cn1ccc2ccc(C(=O)NCC(C)(C)NCC(=O)N3CCC[C@H]3C#N)cc21 [Example 21],28
7,CC(C)(CNC(=O)c1ccc2c(ccn2C(=O)c2ccccc2)c1)NCC(=O)N1CCC[C@H]1C#N [Example 48],31
8,COc1ccc2cc(C(=O)NCC(C)(C)NCC(=O)N3CCC[C@H]3C#N)n(C)c2c1 [Example 24],43
9,Cc1nc2ccc(C(=O)NCCNCC(=O)N3CCC[C@H]3C#N)cc2s1 [Example 101],66
10,Cn1cc(C(=O)NCC(C)(C)NCC(=O)N2CCC[C@H]2C#N)c2ccccc21 [Example 18],36
11,CC(C)(CC(=O)N1Cc2c(Cl)c(Cl)c(Cl)c(Cl)c2C1)NCC(=O)N1CCC[C@H]1C#N [Example 73],94
12,COc1ccc2c(c1)c(C(=O)NCC(C)(C)NCC(=O)N1CCC[C@H]1C#N)cn2CC(C)(C)C [Example 39],73
13,Cn1ccc2cc(C(=O)NCC(C)(C)NCC(=O)N3CCC[C@H]3C#N)ccc21 [Example 20],52
14,COc1cc(C(=O)NCC(C)(C)NCC(=O)N2CCC[C@H]2C#N)cc2sc(C(F)(F)F)nc12 [Example 53],48
15,CC(C)(CC(=O)N1Cc2cccc(O)c2C1)NCC(=O)N1CCC[C@H]1C#N [Example 70],32
16,CC(=O)OCn1cc(C(=O)NCC(C)(C)NCC(=O)N2CCC[C@H]2C#N)c2ccccc21 [Example 35],37
17,CC(C)(CC(=O)N1Cc2ccc(C(C)(C)C)cc2C1)NCC(=O)N1CCC[C@H]1C#N [Example 66],50

row,Compound,IC50 [nM]
1,COCn1ccc2cc(C(=O)NCC(C)(C)NCC(=O)N3CCC[C@H]3C#N)ccc21 [Example 38],25
2,CC(C)(CC(=O)N1Cc2ccc(CO)cc2C1)NCC(=O)N1CCC[C@H]1C#N [Example 71],2
3,COc1c(C(=O)NCC(C)(C)NCC(=O)N2CCC[C@H]2C#N)c(C)nc2cc(-c3ccccc3)nn12 [Example 10],85
4,CC(=O)n1cc(C(=O)NCC(C)(C)NCC(=O)N2CCC[C@H]2C#N)c2ccccc21 [Example 45],28
5,CC(C)(CC(=O)N1Cc2ccc(Br)cc2C1)NCC(=O)N1CCC[C@H]1C#N [Example 64],24
6,COc1ccc2c(c1)c(C(=O)NCC(C)(C)NCC(=O)N1CCC[C@H]1C#N)c(C)n2C [Example 26],33
7,Cn1ccc2cccc(C(=O)NCC(C)(C)NCC(=O)N3CCC[C@H]3C#N)c21 [Example 22],73
8,CC(C)(CC(=O)N1Cc2ccc(F)cc2C1)NCC(=O)N1CCC[C@H]1C#N [Example 63],18
9,Cc1cc(O)c2c(c1)CN(C(=O)CC(C)(C)NCC(=O)N1CCC[C@H]1C#N)C2 [Example 75],14
10,CC(C)(CNC(=O)c1cn(COCc2ccccc2)c2ccccc12)NCC(=O)N1CCC[C@H]1C#N [Example 33],71
11,N#C[C@@H]1CCCN1C(=O)CNCCC(=O)N1CCc2ccccc21 [Example 91],82
12,CC(C)(CNC(=O)c1ccc2c(ccn2CC(=O)OC(C)(C)C)c1)NCC(=O)N1CCC[C@H]1C#N [Example 43],16
13,CC(C)Cn1cc(C(=O)NCC(C)(C)NCC(=O)N2CCC[C@H]2C#N)c2ccccc21 [Example 30],89
14,Cn1cnc2cc(C(=O)NCC(C)(C)NCC(=O)N3CCC[C@H]3C#N)ccc21 [Example 56],30
15,N#C[C@@H]1CCCN1C(=O)CNCCC(=O)Nc1nc2ccccc2s1 [Example 93],62
16,N#C[C@@H]1CCCN1C(=O)CNCCNC(=O)c1cnc2n(c1=O)CCS2 [Compound 126],31
